Assay results taken from the supplement of paper PMC11061612.

How the values were obtained:
Test in all cases: Bliss excess, mean over the matrix (fraction); higher = more synergy
[1] = system: Daoy (Other Solid Carcinomas)
Method in brief: (§1)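 After 24 hours at 37°C and 5% CO2 in 1536-well plates, cells in DMEM/F12 or RPMI plus 10% FBS received two-drug dose matrices for 72 hours. Viability came from CellTiter-Glo 2.0 luminescence and was scaled as inhibition, anchored at 0 by vehicle wells and at 1 by blank wells. Combination Emax is taken as the second-highest inhibition in the matrix, and Bliss excess as the observed combination effect less EA + EB − EA·EB, with EA and EB the single-agent effects.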

KELLY (Neuroblastoma) = system: KELLY (Neuroblastoma)
Method in brief: as §1

[2] = system: OVCA420 (Ovarian Carcinoma)
Method in brief: as §1

[3] = system: CaR-1 (Colorectal Carcinoma)
Method in brief: as §1

[4] = system: EC-GI-10 (Esophageal Squamous Cell Carcinoma)
Method in brief: as §1

[5] = system: TE-9 (Esophageal Squamous Cell Carcinoma)
Method in brief: as §1

[6] = system: LS-180 (Colorectal Carcinoma)
Method in brief: as §1

[7] = system: ME-1 (Acute Myeloid Leukemia)
Method in brief: as §1

[8] = system: CCRF-CEM (T-Lymphoblastic Leukemia)
Method in brief: as §1

HOS (Osteosarcoma) = system: HOS (Osteosarcoma)
Method in brief: as §1

ES4 (Ewing's Sarcoma) = system: ES4 (Ewing's Sarcoma)
Method in brief: as §1

[9] = system: NCI-H82 (Small Cell Lung Carcinoma)
Method in brief: as §1

[10] = system: DoTc2-4510 (Cervical Carcinoma)
Method in brief: as §1

[11] = system: KYSE-520 (Esophageal Squamous Cell Carcinoma)
Method in brief: as §1

T98G (Glioblastoma) = system: T98G (Glioblastoma)
Method in brief: as §1

[12] = system: Calu-3 (Lung Adenocarcinoma)
Method in brief: as §1

[13] = system: HCC-78 (Lung Adenocarcinoma)
Method in brief: as §1

[14] = system: RC-K8 (B-Cell Non-Hodgkin's Lymphoma)
Method in brief: as §1

[15] = system: LB831-BLC (Bladder Carcinoma)
Method in brief: as §1

[16] = system: MFE-296 (Endometrial Carcinoma)
Method in brief: as §1

Structure (SMILES) | Bliss excess [1] | Bliss excess (KELLY (Neuroblastoma)) | Bliss excess [2] | Bliss excess [3] | Bliss excess [4] | Bliss excess [5] | Bliss excess [6] | Bliss excess [7] | Bliss excess [8] | Bliss excess (HOS (Osteosarcoma)) | Bliss excess (ES4 (Ewing's Sarcoma)) | Bliss excess [9] | Bliss excess [10] | Bliss excess [11] | Bliss excess (T98G (Glioblastoma)) | Bliss excess [12] | Bliss excess [13] | Bliss excess [14] | Bliss excess [15] | Bliss excess [16]
COc1cccc(OCCCN)c1-c1cc(Nc2cnc(C#N)cn2)n[nH]1 [Prexasertib] + CCc1c2c(nc3ccc(O)cc13)-c1cc3c(c(=O)n1C2)COC(=O)[C@]3(O)CC [SN-38] (first compound max 1 µM, 7x7, partner max 0.3 µM) | 0.0128 | -0.0098 | 0.0326 | -0.053 | 0.0252 | 0.0438 | -0.0629 | 0.0086 | -0.0078 | 0.0409 | -0.0923 | 0.0347 | 0.0167 | 0.048 | 0.0121 | -0.0003 | -0.0337 | -0.0506 | 0.0581 | 0.0106
C[C@@H](c1ccc2nccn2c1)n1nnc2ncc(-c3cnn(C)c3)nc21 [Savolitinib] + CC1(C)CCC(CN2CCN(c3ccc(C(=O)NS(=O)(=O)c4ccc(NCC5CCOCC5)c([N+](=O)[O-])c4)c(Oc4cnc5[nH]ccc5c4)c3)CC2)=C(c2ccc(Cl)cc2)C1 [Venetoclax] (first compound max 1 µM, 7x7, partner max 1 µM) | -0.0185 | -0.0038 | -0.0505 | -0.0617 | -0.0547 | -0.0307 | -0.0201 | -0.0192 | -0.0527 | -0.0243 | -0.0443 | -0.0467 | -0.0601 | -0.0774 | -0.0064 | -0.0347 | -0.0514 | -0.0489 | -0.0978 | -0.0427
C[C@@H](c1ccc2nccn2c1)n1nnc2ncc(-c3cnn(C)c3)nc21 [Savolitinib] + Cc1c2c(nn1C)CSCc1cc(n(C)n1)CSc1cc(c3ccccc3c1)OCCCc1c(C(=O)O)n(C)c3c-2c(Cl)ccc13 [AZD5991] (first compound max 1 µM, 7x7, partner max 1 µM) | -0.0141 | -0.0138 | -0.0134 | -0.0725 | -0.07 | -0.0683 | -0.015 | -0.051 | 0.0088 | -0.0188 | -0.0724 | -0.0763 | -0.0204 | -0.0615 | -0.021 | -0.021 | -0.0366 | -0.0257 | -0.0148 | -0.0228
Cn1cnc2c(F)c(Nc3ccc(Br)cc3Cl)c(C(=O)NOCCO)cc21 [Selumetinib] + C=CCn1c(=O)c2cnc(Nc3ccc(N4CCN(C)CC4)cc3)nc2n1-c1cccc(C(C)(C)O)n1 [AZD1775] (first compound max 10 µM, partner max 1 µM) | -0.0443 | -0.0658 | -0.0093 | -0.0218 | -0.0424 | -0.0343 | -0.0585 | -0.0255 | 0.0378 | -0.0713 | -0.0679 | -0.106 | -0.0164 | 0.0054 | -0.0395 | -0.0405 | -0.0293 | -0.0714 | -0.08 | -0.059
Cn1cnc2c(F)c(Nc3ccc(Br)cc3Cl)c(C(=O)NOCCO)cc21 [Selumetinib] + CC(C)n1c(=O)n(C)c2cnc3cc(F)c(-c4ccc(OCCCN5CCCCC5)nc4)cc3c21 [AZD1390] (first compound max 10 µM, 7x7, partner max 0.3 µM) | -0.021 | -0.0177 | 0.0018 | -0.041 | -0.0359 | -0.0228 | -0.0519 | 0.0338 | -0.0131 | -0.0404 | -0.0515 | -0.0349 | -0.0401 | -0.0115 | -0.0125 | -0.023 | -0.0313 | -0.0253 | -0.0237 | -0.0529
Cn1cnc2c(F)c(Nc3ccc(Br)cc3Cl)c(C(=O)NOCCO)cc21 [Selumetinib] + CCN(CCO)CCCOc1ccc2c(Nc3cc(CC(=O)Nc4cccc(F)c4)[nH]n3)ncnc2c1 [AZD2811] (first compound max 10 µM, 7x7, partner max 1 µM) | 0.012 | -0.0709 | 0.0471 | 0.0301 | 0.0087 | -0.0347 | -0.0541 | -0.0296 | 0.0007 | -0.0192 | -0.0398 | 0.0317 | -0.0098 | 0.0547 | -0.0104 | -0.0353 | -0.0124 | 0.0763 | -0.0385 | -0.0309
Cn1cnc2c(F)c(Nc3ccc(Br)cc3Cl)c(C(=O)NOCCO)cc21 [Selumetinib] + C[C@@H]1COCCN1C2=NC(=NC(=C2)C3(CC3)[S@](=N)(=O)C)C4=C5C=CNC5=NC=C4 [AZD6738] (first compound max 10 µM, 7x7, partner max 10 µM) | -0.0087 | -0.015 | 0.078 | -0.069 | 0.0623 | -0.0063 | -0.0516 | -0.0752 | -0.0108 | -0.0613 | -0.039 | -0.0337 | -0.0282 | 0.0227 | -0.0174 | -0.0295 | -0.0254 | 0.0091 | -0.0569 | -0.0543
CC(=O)Nc1cccc(-n2c(=O)n(C3CC3)c(=O)c3c(Nc4ccc(I)cc4F)n(C)c(=O)c(C)c32)c1 [Trametinib] + Cc1nc(-c2cn3c(n2)-c2ccc(-c4cnn(C(C)(C)C(N)=O)c4)cc2OCC3)n(C(C)C)n1 [Taselisib] (first compound max 1 µM, 7x7, partner max 10 µM) | 0.0146 | 0.132 | 0.0806 | 0.0783 | 0.112 | 0.073 | 0.0957 | 0.118 | 0.0951 | 0.0604 | 0.0891 | 0.0361 | 0.143 | 0.0534 | 0.0822 | 0.162 | 0.0913 | 0.0907 | 0.0977 | 0.0323
